Key:
[1] = test system: dengue virus type 2; assay: Antiviral activity against DENV2 New Guinea C strain infected in Huh7 cells after 48 hrs by renilla luciferase assay; assay type: functional, organism-based, Huh-7; conditions: for EC90: Huh-7, time 48 hrs
[2] = Cytotoxicity against human Huh-7 cells infected with DENV2 by alamar blue assay; assay type: cell-based
[3] = test system: dengue virus type 2; assay: Potency index, ratio of erlotinib EC50 to compound EC50 for antiviral activity against DENV2 New Guinea C strain infected in Huh7 cells after 48 hrs by renilla luciferase assay; assay type: functional, Huh-7
[4] = Selectivity index, ratio of CC50 for human Huh7 cells to EC50 for DENV2 New Guinea C; assay type: toxicity; conditions: read-out: Ratio CC50/EC50
[5] = Dengue virus, New Guinea C, Huh-7, 48 h

COc1ccc2ncnc(Nc3cc(OC)c(OC)c(OC)c3)c2c1
EC50 [1, 5]: > 10 µM | CC50 [2]: > 10 µM

COc1cc(Nc2ncnc3ccc(Cl)cc23)cc(OC)c1OC
Ratio EC50 [3]: >10 | EC50 [1, 5]: 1 µM | CC50 [2]: > 10 µM

Clc1ccc(-c2ccc(-c3nc(NCc4cccnc4)nc4ccccc34)s2)cc1
EC50 [1, 5]: 0.07 µM

CC(C)(C)Oc1cccc2nc(N)nc(N)c12
EC50 [1, 5]: 0.0028 µM

COc1cc2ncnc(Nc3cc(OC)c(OC)c(OC)c3)c2cc1OC
EC50 [1, 5]: 6.6 µM | CC50 [2]: > 10 µM

COc1cc2nccc(Nc3cc(OC)c(OC)c(OC)c3)c2cc1OC
EC50 [1, 5]: > 10 µM | CC50 [2]: > 10 µM

COc1cc(Nc2ccnc3cc(Cl)ccc23)cc(OC)c1OC
EC50 [1, 5]: > 10 µM | CC50 [2]: > 10 µM

COc1cc(-c2cnc3c(N4C[C@@H](C)O[C@@H](C)C4)snc3c2)ccc1N
EC50 [1, 5]: 0.87 µM

COc1ccc(-c2cnc3[nH]cc(C#Cc4cccnc4)c3c2)cc1OC
EC50 [1, 5]: 0.72 µM

COc1cc(Nc2ccnc3ccc(Br)cc23)cc(OC)c1OC
Ratio EC50 [3]: >80 | EC50 [1, 5]: 0.08 µM | EC50 ([1]; huh-7): 0.122 µM | CC50 [2]: > 10 µM

COc1cc(Nc2ncnc3ccc(C(F)(F)F)cc23)cc(OC)c1OC
EC50 [1, 5]: > 10 µM | CC50 [2]: > 10 µM

CCN(CC)c1ccc(Oc2ccc(-c3[nH]c4cccc(F)c4c(=O)c3C)cc2F)cc1
EC50 [1, 5]: 0.007 µM

COc1cc(N(C)c2ccnc3ccc(C(F)(F)F)cc23)cc(OC)c1OC
EC50 [1, 5]: 10 µM | CC50 [2]: > 10 µM

COc1cc(Nc2ccnc3ccc(I)cc23)cc(OC)c1OC
EC50 [1, 5]: 0.82 µM | CC50 [2]: > 10 µM

COc1cc(Nc2cc(C)nc3ccc(C(F)(F)F)cc23)cc(OC)c1OC
EC50 [1, 5]: 0.91 µM | CC50 [2]: > 10 µM

COc1cc(Nc2ccnc3ccc(Cl)cc23)cc(OC)c1OC
EC50 [1, 5]: 0.52 µM | CC50 [2]: > 10 µM

COc1cc(Nc2ccnc3cc(C#N)ccc23)cc(OC)c1OC
EC50 [1, 5]: 3.3 µM | CC50 [2]: > 10 µM

COc1cc(Nc2ccnc3ccc(C#N)cc23)cc(OC)c1OC
EC50 [1, 5]: 0.76 µM | CC50 [2]: > 10 µM

COc1ccc2c(Nc3cc(OC)c(OC)c(OC)c3)ccnc2c1
EC50 [1, 5]: > 10 µM | CC50 [2]: > 10 µM

COc1cc(Nc2ccnc3ccccc23)cc(OC)c1OC
EC50 [1, 5]: 8.2 µM | CC50 [2]: > 10 µM

COc1ccc2nccc(Nc3cc(OC)c(OC)c(OC)c3)c2c1
Ratio EC50 [3]: 8 | EC50 [1, 5]: 0.75 µM | CC50 [2]: > 10 µM

COc1cc(Nc2ccnc3cc(I)ccc23)cc(OC)c1OC
Ratio EC50 [3]: 2 | EC50 [1, 5]: 3.6 µM | CC50 [2]: > 10 µM

COc1cc(Nc2ncnc3ccccc23)cc(OC)c1OC
Ratio EC50 [3]: 2 | EC50 [1, 5]: 2.8 µM | CC50 [2]: > 10 µM

COc1cc(Nc2ccnc3ccc(F)cc23)cc(OC)c1OC
EC50 [1, 5]: 5.2 µM | CC50 [2]: > 10 µM

COc1cc(Nc2c(C#N)cnc3ccc(S(C)(=O)=O)cc23)cc(OC)c1OC
EC50 [1, 5]: > 10 µM | CC50 [2]: > 10 µM

COc1cc(Nc2c(C#N)cnc3ccc(Br)cc23)cc(OC)c1OC
Ratio EC50 [3]: >80 | EC50 [1, 5]: 0.082 µM | EC90 ([1]; Dengue virus, New Guinea C): 0.151 µM | CC50 [2]: > 10 µM

COc1cc(Nc2ccnc3cc(C(F)(F)F)ccc23)cc(OC)c1OC
EC50 [1, 5]: 6.8 µM | CC50 [2]: > 10 µM

COc1cc(Nc2ccnc3ccc(S(C)(=O)=O)cc23)cc(OC)c1OC
EC50 [1, 5]: 0.84 µM | CC50 [2]: > 10 µM

COc1cc(Nc2c(C#N)cnc3cc(Cl)ccc23)cc(OC)c1OC
EC50 [1, 5]: > 10 µM | CC50 [2]: > 10 µM

COc1cc(Nc2c(C#N)cnc3cc(Br)ccc23)cc(OC)c1OC
EC50 [1, 5]: > 10 µM | CC50 [2]: > 10 µM

COc1cc(Nc2ncnc3ccc(F)cc23)cc(OC)c1OC
EC50 [1, 5]: > 10 µM | CC50 [2]: > 10 µM

COc1ccc2c(Nc3cc(OC)c(OC)c(OC)c3)c(C#N)cnc2c1
EC50 [1, 5]: > 10 µM | CC50 [2]: > 10 µM

COc1cc(Nc2cc(C)nc3ccc(Br)cc23)cc(OC)c1OC
Ratio EC50 [3]: >20 | EC50 [1, 5]: 0.28 µM | EC90 ([1]; Dengue virus, New Guinea C): 0.53 µM | selectivity ratio [4]: 10 | CC50 [2]: 2.5 µM

COc1cc(Nc2ncnc3ccc(S(C)(=O)=O)cc23)cc(OC)c1OC
EC50 [1, 5]: > 10 µM | CC50 [2]: > 10 µM

COc1cc(Nc2ccnc3cc(F)ccc23)cc(OC)c1OC
EC50 [1, 5]: 4.1 µM | CC50 [2]: > 10 µM

COc1cc(Nc2c(C#N)cnc3ccc(Cl)cc23)cc(OC)c1OC
EC50 [1, 5]: 1.3 µM | CC50 [2]: > 10 µM

COc1cc(Nc2cc(C)nc3ccc(F)cc23)cc(OC)c1OC
EC50 [1, 5]: 2.3 µM | CC50 [2]: > 10 µM

COc1cc(Nc2cc(C)nc3cc(C(F)(F)F)ccc23)cc(OC)c1OC
EC50 [1, 5]: > 10 µM | CC50 [2]: > 10 µM

COc1ccc2nc(C)cc(Nc3cc(OC)c(OC)c(OC)c3)c2c1
EC50 [1, 5]: 10 µM | CC50 [2]: > 10 µM

COc1cc(Nc2ncnc3cc(F)c(F)cc23)cc(OC)c1OC
Ratio EC50 [3]: >10 | EC50 [1, 5]: > 10 µM | CC50 [2]: > 10 µM

COc1cc(Nc2c(C#N)cnc3ccc(I)cc23)cc(OC)c1OC
Ratio EC50 [3]: >80 | EC50 [1, 5]: 0.079 µM | EC90 ([1]; Dengue virus, New Guinea C): 0.125 µM | CC50 [2]: > 10 µM

COc1cc(Nc2ccnc3cc(F)c(F)cc23)cc(OC)c1OC
EC50 [1, 5]: 1 µM | CC50 [2]: 5.5 µM

COc1cc(Nc2ccnc3c(C)cccc23)cc(OC)c1OC
EC50 [1, 5]: > 10 µM | CC50 [2]: > 10 µM

COc1ccc2c(Nc3cc(OC)c(OC)c(OC)c3)cc(C)nc2c1
EC50 [1, 5]: > 10 µM | CC50 [2]: > 10 µM

COc1cc(Nc2c(C#N)cnc3cc(I)ccc23)cc(OC)c1OC
EC50 [1, 5]: 4.7 µM | CC50 [2]: > 10 µM

COc1cc(Nc2ncnc3cc(Cl)ccc23)cc(OC)c1OC
EC50 [1, 5]: 6.1 µM | CC50 [2]: > 10 µM

COc1cc(Nc2ccnc3cc(Br)ccc23)cc(OC)c1OC
EC50 [1, 5]: 8.4 µM | CC50 [2]: > 10 µM

COc1cc2nc(C)cc(Nc3cc(OC)c(OC)c(OC)c3)c2cc1OC
EC50 [1, 5]: 10 µM | CC50 [2]: > 10 µM

COc1cc(Nc2ncnc3ccc(Br)cc23)cc(OC)c1OC
EC50 [1, 5]: 0.97 µM | CC50 [2]: > 10 µM

COc1cc(Nc2ncnc3cc(I)ccc23)cc(OC)c1OC
EC50 [1, 5]: 2.9 µM | CC50 [2]: 5.8 µM

COc1cc(Nc2c(C#N)cnc3ccccc23)cc(OC)c1OC
EC50 [1, 5]: > 10 µM | CC50 [2]: > 10 µM

COc1cc(Nc2ncnc3ccc(I)cc23)cc(OC)c1OC
EC50 [1, 5]: 1 µM | CC50 [2]: > 10 µM

COc1cc(Nc2ncnc3ccc(C#N)cc23)cc(OC)c1OC
EC50 [1, 5]: 3.7 µM | CC50 [2]: > 10 µM

COc1cc(Nc2ncnc3cc(C(F)(F)F)ccc23)cc(OC)c1OC
EC50 [1, 5]: 5.1 µM | CC50 [2]: > 10 µM

COc1ccc2c(Nc3cc(OC)c(OC)c(OC)c3)ncnc2c1
Ratio EC50 [3]: 2 | EC50 [1, 5]: 2.7 µM | CC50 [2]: > 10 µM

COc1ccc2ncc(C#N)c(Nc3cc(OC)c(OC)c(OC)c3)c2c1
EC50 [1, 5]: 3.1 µM | CC50 [2]: > 10 µM

COc1cc(Nc2ncnc3cc(F)ccc23)cc(OC)c1OC
EC50 [1, 5]: > 10 µM | CC50 [2]: > 10 µM

COc1cc(Nc2ncnc3cc(C#N)ccc23)cc(OC)c1OC
EC50 [1, 5]: 1.4 µM | CC50 [2]: > 10 µM

COc1cc(Nc2ncnc3ccc(C)cc23)cc(OC)c1OC
EC50 [1, 5]: > 10 µM | CC50 [2]: > 10 µM

COc1cc(Nc2cc(C)nc3ccccc23)cc(OC)c1OC
EC50 [1, 5]: 8 µM | CC50 [2]: > 10 µM

COc1cc(Nc2ncnc3cc(Br)ccc23)cc(OC)c1OC
EC50 [1, 5]: 2 µM | CC50 [2]: > 10 µM

COc1cc(Nc2ccnc3ccc(C(C)(C)C)cc23)cc(OC)c1OC
EC50 [1, 5]: 7.4 µM | CC50 [2]: > 10 µM

COc1cc(Nc2ccnc3ccc(C(F)(F)F)cc23)cc(OC)c1OC
EC50 [1, 5]: 0.59 µM | CC50 [2]: > 10 µM

COc1cc2ncc(C#N)c(Nc3cc(OC)c(OC)c(OC)c3)c2cc1OC
EC50 [1, 5]: 5.5 µM | CC50 [2]: > 10 µM

C#Cc1cccc(Nc2ncnc3cc(OCCOC)c(OCCOC)cc23)c1 [ERLOTINIB]
EC50 [1, 5]: 6.5 µM

Source: ChEMBL document CHEMBL4725262, “Potent antiviral activity of novel multi-substituted 4-anilinoquin(az)olines” (Bioorg Med Chem Lett, 2020)
